Measurements taken from patent US12478605B2, “Biochanin a derivatives for treatment of BEST1-related retinopathies” (Universität Regensburg, priority 2020, dated 2025).
Numbering of substitutions follows the chain as printed.

Experiments:
Assay type in all cases: cell-based
BEST1 wildtype = molecular target: T1, BEST1 wildtype (Homo sapiens, UniProt O76090); test: YFP-halide transport assay (I- influx), MDCKII cells expressing BEST1 wildtype; details: MDCKII BEST1 wildtype cell lines; compound addition for 24 h; YFP quenching; FIG. 4B
T1 construct: expressed in transfected cells
T1 sequence (O76090 1-585): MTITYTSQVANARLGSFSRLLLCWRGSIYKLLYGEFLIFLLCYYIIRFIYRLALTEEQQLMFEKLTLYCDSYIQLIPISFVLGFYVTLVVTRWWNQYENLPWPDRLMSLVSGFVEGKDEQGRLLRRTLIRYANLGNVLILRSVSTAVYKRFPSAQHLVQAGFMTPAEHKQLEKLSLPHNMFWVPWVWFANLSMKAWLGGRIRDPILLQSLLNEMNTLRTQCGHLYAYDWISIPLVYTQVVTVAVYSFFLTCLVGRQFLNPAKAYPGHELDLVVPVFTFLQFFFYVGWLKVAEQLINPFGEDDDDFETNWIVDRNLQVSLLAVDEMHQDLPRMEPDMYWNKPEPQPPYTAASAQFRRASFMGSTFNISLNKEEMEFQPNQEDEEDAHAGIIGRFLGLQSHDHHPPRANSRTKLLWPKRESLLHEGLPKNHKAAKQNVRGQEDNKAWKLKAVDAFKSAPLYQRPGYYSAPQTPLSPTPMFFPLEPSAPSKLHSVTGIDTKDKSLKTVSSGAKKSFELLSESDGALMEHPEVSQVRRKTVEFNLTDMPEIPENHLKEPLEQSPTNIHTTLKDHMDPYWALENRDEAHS
Protocol: (§1) Human hiPSC-RPE or MDCKII cells were transduced via lentivirus particles which were produced by co-transfecting HEK293T cells with the yellow fluorescence protein (YFPH148Q/I152L)-pLJM1 and helper plasmids pMD2.G and psPAX2 using the Ca^2+ phospate transfection method. After six weeks of cultivation in 96-well black microtiter plates, cells were incubated with 100 mM Cl^− containing solution and basal YFP fluorescence was measured in a Tecan microplate reader. Subsequently Cl^− was replaced with equimolar I^− and decrease of YFP fluorescence intensity was monitored for another 2 min in 10 sec intervals.
(§2) To analyze BEST1-mediated anion transport in the cell lines generated in the previous examples, a well-established halide transport assay (Galietta et al., 2001) was adapted. […] Addition of I— leads to specific YFP quenching over time and changes of fluorescence intensities can be monitored on a plate reader. MDCKII cells were incubated with 100 mM Cl— containing solution and steady state YFP fluorescence signal intensities were measured after 6 minutes. Subsequently, Cl— was replaced by equimolar I— and anion permeability was monitored by decreasing YFP intensities as a result of BEST1-mediated I— influx in a time course up to 2 minutes (FIG. 2B). […]

[1] = system: untransfected MDCKII cells; test: YFP-halide transport assay (I- influx), untransfected MDCKII controls; details: compound addition for 24 h, YFP quenching, FIG. 4B
Protocol: as §1, §2

mutant BEST1 R218C = molecular target: T2, mutant BEST1 R218C (Homo sapiens, UniProt O76090, R218C); test: YFP-halide transport assay (I- influx), MDCKII cells expressing mutant BEST1-R218C
T2 construct: expressed in transfected cells
T2 sequence (O76090 1-585 R218C): T1 sequence (O76090 1-585) with R218C
Protocol: as §1
To analyze BEST1-mediated anion transport in the cell lines generated in the previous examples, a well-established halide transport assay (Galietta et al., 2001) was adapted. […] Addition of I— leads to specific YFP quenching over time and changes of fluorescence intensities can be monitored on a plate reader. MDCKII cells were incubated with 100 mM Cl— containing solution and steady state YFP fluorescence signal intensities were measured after 6 minutes. Subsequently, Cl— was replaced by equimolar I— and anion permeability was monitored by decreasing YFP intensities as a result of BEST1-mediated I— influx in a time course up to 2 minutes (FIG. 2B). For several independent BEST1 wildtype cell lines a fast kinetic of decreasing fluorescence intensities to ˜30 to 40% was observed while the untransfected control cell lines remained flat (FIGS. 2C and D).
Example 8—Evaluation of BioA(C2H3O2)2 activity in MDCKII cells MDCKII cells co-expressing YFP and BEST1 wildtype or mutant p.(R218C) were seeded on black 96-well plates and cultivated for 6 days to achieve polarity, a requirement for correct basolateral localization of BEST1 in epithelial cells. Compounds were tested separately at 10 μM concentration in a 96-well format. After compound addition for 24 h, cells were subjected to an inwardly directed I— gradient to drive I— influx and produce decreasing (quenched) fluorescence signals. […]

BEST-Y227N = molecular target: T3, BEST-Y227N (Homo sapiens, UniProt O76090, Y227N); test: YFP-halide transport assay (I- influx), MDCKII cells expressing mutant BEST-Y227N; details: various concentrations from 2 μM to 20 μM, 24 h, FIG. 4C
T3 construct: expressed in transfected cells
T3 sequence (O76090 1-585 Y227N): T1 sequence (O76090 1-585) with Y227N

## COc1ccc(-c2coc3cc(OC(C)=O)cc(OC(C)=O)c3c2=O)cc1 [Biochanin A diacetate, 3-(4-Methoxyphenyl)-4oxo-4H-chromene-5,7-diyl diacetate]
BEST1 wildtype
  effect on kinetics of I- influx (anion transport activity): no or only little effect
[1]
  effect on kinetics of I- influx (anion transport activity): no or only little effect
Mutant BEST1 R218C; MDCKII cells, FIG. 4A, comparison of Biochanin A derivatives
  effect on BEST1 anion transport activity: greatest effect
Mutant BEST1 R218C; MDCKII mutant BEST1-R218C, various concentrations from 2 μM to 20 μM, 24 h, FIG. 4C
  anion transport activity (I- influx): strongly
BEST-Y227N
  anion transport activity (I- influx): moderately increased
